These results are taken from patent EP0570920A1, “Probe for cannabinoid receptors” (YISSUM RESEARCH AND DEVELOPMENT COMPANY OF THE HEBREW …, priority 1992, dated 1993).

One may read the Kd as the concentration at which binding is half-saturated.

Where two headings read alike, the source gives them in different places.

The conditions of series [1]: cited from earlier work.
Series [2] can be described thus: Discrimination tests / in vivo experiment comparing (3), (7) and Δ¹-THC.
Series [3] has as its target T1, cannabinoid receptor (Rattus norvegicus, UniProt P20272).
T1 construct: a synaptosomal membrane preparation derived from rat whole brain, without brainstem; from tissue; host or cells: rat whole brain without brainstem, synaptosomal membranes
Particulars: cited from earlier work.

The conditions of series [4]: cited from earlier work. This is another data set of the same source.
The conditions of series [5]: pigeons; cited from earlier work.
In series [6] the target is T1, cannabinoid receptor. The series can be described thus: Ligand binding assay with [³H]7, centrifugation assay on synaptosomal membrane preparation.
The conditions of series [7]: in vivo; cited from earlier work.
Series [8] in a line: Solubility of drug in BSA vehicle for binding assay. The settings on record: at concentrations above 5 uM in 5 mg/ml BSA.

T1 sequence (P20272 whole entry): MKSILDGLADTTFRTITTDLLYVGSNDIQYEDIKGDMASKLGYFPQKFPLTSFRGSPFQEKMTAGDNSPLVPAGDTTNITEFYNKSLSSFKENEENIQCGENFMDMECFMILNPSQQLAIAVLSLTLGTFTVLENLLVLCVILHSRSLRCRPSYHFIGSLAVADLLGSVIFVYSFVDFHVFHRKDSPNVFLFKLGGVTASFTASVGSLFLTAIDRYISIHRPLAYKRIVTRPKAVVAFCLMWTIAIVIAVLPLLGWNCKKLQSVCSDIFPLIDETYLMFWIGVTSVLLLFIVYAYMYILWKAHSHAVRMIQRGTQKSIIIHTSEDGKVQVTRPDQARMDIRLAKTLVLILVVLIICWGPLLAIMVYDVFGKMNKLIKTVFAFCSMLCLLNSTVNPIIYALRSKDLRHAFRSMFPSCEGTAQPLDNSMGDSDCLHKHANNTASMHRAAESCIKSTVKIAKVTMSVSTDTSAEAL

With “7-hydroxyhexahydrocannabinols [Compound 5b]”, the “times more active than Δ¹-THC in discrimination tests” value in series [1] (depending on the animal used (pigeon or rat) and on the timing of measurement) is reported as 3-17 times. Moreover, the “activity in discrimination tests relative to axial epimer (6b)” value in series [1] (rat, in vivo) is reported as “considerably more active”.
In the case of `CCCCCCC(C)(C)c1cc(O)c2c(c1)OC(C)(C)[C@@H]1CC=C(CO)C[C@@H]21` [Compound 3], the “activity in the discrimination tests, (3) versus (7)” value in series [2] is “essentially equivalent in activity”. The “potency ratio of 3 to 4 for binding to the cannabinoid receptor” value in series [3] is reported as “circa 1500”. Moreover, the “competition for the specific binding of [³H]1” value in series [3] (membranes from rat brain) is on record as “completes fully”. Moreover, the Ki in series [3] (read-out: K, heterologous displacement of [³H]1, membranes from rat brain) is 0.234 nM; in series [6], 0.188 nM. The “times more potent than Δ¹-THC in pharmacological tests” value in series [4] (various animal species) is 100-800 times. For the same compound, in series [5], the “times more potent than Δ¹-THC in drug discrimination” value is recorded as 80 times.
In the case of `CCCCCCC(C)(C)c1cc(O)c2c(c1)OC(C)(C)[C@H]1CC=C(CO)C[C@H]21` [Compound 4], the “potency relative to (3) in in vivo pharmacological tests” value in series [4] (in vivo) was “several thousand times less potent”. Moreover, the Ki in series [6] amounted to 466 nM. In addition, the “fold less potent than its enantiomer compound 3 (HU-210) in binding” value in series [6] (displacement of [³H]7) is on record as 2500 fold.
Turning to `CCCCCc1cc(O)c2c(c1)OC(C)(C)C1CCC(C)CC21` (stereo not drawn) [Compound 5a], the “cannabimimetic activity relative to axial epimer (6a)” value in series [7] was “more active”.
With `CCCCCCC(C)(C)c1cc(O)c2c(c1)OC(C)(C)C1CCC(CO)CC21` (stereo not drawn) [Compound 7, 7-hydroxy-hexahydrocannabinol-5'-dimethyl heptyl homologue], in series [2], the “activity in the discrimination tests, (3) versus (7)” value is “essentially equivalent in activity” and the “times more potent than Δ¹-THC in the in vivo experiment” value was determined as 125 times. Besides, in series [6], the “times more potent than (3) in the binding experiments” value is listed as “about 4 times” and the “times more potent than Δ¹-THC on binding” value is on record as “about 1000 times”. Moreover, in series [6] (Fig. 1), the “binding potency compared with CP-55940” value is on record as “more potent than CP-55940”. Further, in series [6] (homologous displacement experiments with [³H]7), the binding capacity was 4.41 ± 0.08 pmol/mg protein. In addition, the dissociation constant (Kd) in series [6] (homologous displacement studies, [³H]7, rat whole brain synaptosomal membranes) was 0.045 nM.
Consider `CCCCCc1cc(O)c2c(c1)OC(C)(C)[C@@H]1CCC(C)=C[C@@H]21` [Δ¹-THC, Δ-tetrahydrocannabonol], for which the solubility in vehicle result in series [8] is “partial insolubility”.
